Measurements published in patent publication US20240132475A1, “SUBSTITUTED PYRAZOLYL COMPOUNDS AS MALT-1 INHIBITORS” (AURIGENE ONCOLOGY LIMITED, priority 2021, published 2024).

Biological target: T1, MALT-1 (Isoform 1) (Homo sapiens, UniProt Q9UDY8)
T1 construct: using recombinant MALT-1 (Isoform 1, aa-840) generated in house; made in house
T1 sequence (Q9UDY8 1-824): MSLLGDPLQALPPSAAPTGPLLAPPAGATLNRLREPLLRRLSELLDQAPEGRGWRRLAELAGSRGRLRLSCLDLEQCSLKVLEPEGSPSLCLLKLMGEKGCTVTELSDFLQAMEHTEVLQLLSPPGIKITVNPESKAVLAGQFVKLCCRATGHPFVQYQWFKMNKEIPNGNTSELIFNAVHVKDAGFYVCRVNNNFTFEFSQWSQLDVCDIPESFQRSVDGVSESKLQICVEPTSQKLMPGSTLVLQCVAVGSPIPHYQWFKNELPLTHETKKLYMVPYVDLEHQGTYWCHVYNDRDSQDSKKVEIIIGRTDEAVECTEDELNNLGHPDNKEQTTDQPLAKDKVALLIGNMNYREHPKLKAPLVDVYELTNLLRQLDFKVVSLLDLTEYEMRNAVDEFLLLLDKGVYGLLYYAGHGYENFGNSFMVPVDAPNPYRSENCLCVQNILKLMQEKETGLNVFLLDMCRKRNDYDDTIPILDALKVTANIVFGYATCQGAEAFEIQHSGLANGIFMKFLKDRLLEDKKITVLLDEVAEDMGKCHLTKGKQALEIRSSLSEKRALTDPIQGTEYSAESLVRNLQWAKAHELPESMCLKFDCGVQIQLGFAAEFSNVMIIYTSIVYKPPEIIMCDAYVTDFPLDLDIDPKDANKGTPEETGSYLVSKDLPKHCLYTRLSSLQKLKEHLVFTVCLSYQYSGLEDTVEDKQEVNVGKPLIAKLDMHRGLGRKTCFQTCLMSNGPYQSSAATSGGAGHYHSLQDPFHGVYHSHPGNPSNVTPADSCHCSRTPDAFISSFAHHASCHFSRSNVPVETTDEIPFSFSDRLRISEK
Test: MALT-1 (Isoform 1) enzyme fluorescent biochemical assay
Conditions: for IC50: dose-response, sigmoidal curve fit, reported as groups A, B, C; for inhibition at 1 µM / Percent Inhibition (1 μM): test compound 1 μM; for inhibition at 1 µM / inhibition at 10 µM / Percent Inhibition (1 μM): recombinant MALT-1 1.5 nM; for inhibition at 1 µM: read-out: Percent Inhibition (1 μM); for inhibition at 10 µM: test compound 10 μM (stated in the cell), read-out: Percent Inhibition (10 μM)
Protocol: The potency of compounds to inhibit MALT-1 (Isoform 1) enzyme was tested in a Fluorescent assay using recombinant MALT-1 (Isoform 1, aa-840) generated in house. The assay buffer was 50 mM HEPES (pH 7.5), 100 mM NaCl, 10 mM DTT, 1 mM EDTA, 0.9 M sodium citrate, 0.01% CHAPS. 1.5 nM of MALT-1 enzyme was incubated with test compounds ([…]) (1% DMSO) in the presence of buffer for 30 minutes at 30° C. The protease reaction was initiated by adding […] of AC-LRSR-MAC (Peptide International, USA) substrate and incubated for 240 min. After 240 min incubation, fluorescence emission of the samples at 460 nm was measured at an excitation of 355 nm. The percent inhibition was calculated using the following formula: […]. IC50 values were determined by fitting the dose-response data to sigmoidal curve fitting equation using Graph pad prism software V8.
ND represents Not Determined.

Row | Structure (SMILES) | IC50 [nM] | inhibition at 1 µM [%] | inhibition at 10 µM [%] | Percent Inhibition (1 μM) [%]
1 | N#Cc1cc(NC(=O)c2cnn(Cc3cccc(F)c3C(F)F)c2C(F)(F)F)cnc1-n1nccn1 [Compound 56, N-(5-cyano-6-(2H-1,2,3-triazol-2-yl)pyridin-3-y1)-1-(2-(difluoromethyl)-3-fluorobenzyl)-5-(trifluoromethyl)-1H-pyrazole-4-carboxamide] | 251 to 1000 | 77 | – | –
2 | Cc1ccc(F)cc1Cn1ncc(C(=O)Nc2cnc(-n3nccn3)c(C#N)c2)c1C(F)(F)F [Compound 28, N-(5-cyano-6-(2H-1,2,3-triazol-2-yl)pyridin-3-yl)-1-(5-fluoro-2-methylbenzyl)-5-(trifluoromethyl)-1H-pyrazole-4-carboxamide] | 251 to 1000 | 84 | – | –
3 | CC(c1cccc(F)c1)n1ncc(C(=O)Nc2cnc(-n3nccn3)c(Cl)c2)c1C(F)(F)F (single isomer, unassigned) [Compound 4a] | > 1000 | – | 83 | –
4 | Cc1c(F)cccc1Cn1ncc(C(=O)Nc2cnc(-n3nccn3)c(C#N)c2)c1C(F)(F)F [Compound 26, N-(5-cyano-6-(2H-1,2,3-triazol-2-yl)pyridin-3-y1)-1-(3-fluoro-2-methylbenzyl)-5-(trifluoromethyl)-1H-pyrazole-4-carboxamide] | < 250 | 100 | – | –
5 | CC(c1cccc(F)c1)n1ncc(C(=O)Nc2cnc(-n3nccn3)c(C#N)c2)c1C(F)(F)F (racemic) [Compound 3, N-(5-cyano-6-(2H-1,2,3-triazol-2-yl)pyridin-3-yl)-1-(1-(3-fluorophenyl)ethyl)-5-(trifluoromethyl)-1H-pyrazole-4-carboxamide] | < 250 | 83 | – | –
6 | CC(c1cccc(F)c1)n1ncc(C(=O)Nc2cnc(-n3nccn3)c(C#N)c2)c1C(F)(F)F (single isomer, unassigned) [Compound 3b] | < 250 | – | – | 100
7 | N#Cc1cc(NC(=O)c2cnn(Cc3cccc(F)c3Cl)c2C(F)(F)F)cnc1-c1ccoc1 [Compound 54, 1-(2-chloro-3-fluorobenzyl)-N-(5-cyano-6-(furan-3-yl)pyridin-3-y1)-5-(trifluoromethyl)-1H-pyrazole-4-carboxamide] | 251 to 1000 | 77 | – | –
8 | O=C(Nc1ccnc(C(F)(F)F)c1)c1cnn(Cc2cccc(F)c2Cl)c1C(F)(F)F [Compound 40, 1-(2-chloro-3-fluorobenzyl)-5-(trifluoromethyl)-N-(2-(trifluoromethyl)pyridin-4-y1)-1H-pyrazole-4-carboxamide] | 251 to 1000 | 75 | – | –
9 | CC(c1ccccc1)n1ncc(C(=O)Nc2cnc(-n3nccn3)c(C#N)c2)c1C(F)(F)F (single isomer, unassigned) [Compound 2b] | 251 to 1000 | – | – | 57
10 | O=C(Nc1cc(C(F)(F)F)cnn1)c1cnn(Cc2cccc(F)c2Cl)c1C(F)(F)F [Compound 43, 1-(2-chloro-3-fluorobenzyl)-5-(trifluoromethyl)-N-(5-(trifluoromethyl)pyridazin-3-y1)-1H-pyrazole-4-carboxamide] | > 1000 | 13 | – | –
11 | Cc1c(F)cccc1Cn1ncc(C(=O)Nc2cnc(-n3nccn3)c(Cl)c2)c1C(F)(F)F [Compound 32, N-(5-chloro-6-(2H-1,2,3-triazol-2-y1)pyridin-3-y1)-1-(3-fluoro-2-methylbenzyl)-5-(trifluoromethyl)-1H-pyrazole-4-carboxamide] | < 250 | 99 | – | –
12 | N#Cc1cc(NC(=O)c2cnn(Cc3cccc(F)c3Cl)c2C(F)(F)F)cnc1-n1nccn1 [Compound 1, 1-(2-chloro-3-fluorobenzyl)-N-(5-cyano-6-(2H-1,2,3-triazol-2-yl)pyridin-3-yl)-5-(trifluoromethyl)-1H-pyrazole-4-carboxamide] | < 250 | 100 | – | –
13 | COc1cccc(Cn2ncc(C(=O)Nc3cnc(-n4nccn4)c(C#N)c3)c2C(F)(F)F)c1 [Compound 17, N-(5-cyano-6-(2H-1,2,3-triazol-2-yl)pyridin-3-y1)-1-(3-methoxybenzyl)-5-(trifluoromethyl)-1H-pyrazole-4-carboxamide] | – | – | 48 | –
14 | CC(c1cccc(C#N)c1)n1ncc(C(=O)Nc2cnc(-n3nccn3)c(C#N)c2)c1C(F)(F)F (stereo not drawn) [Compound 50, N-(5-cyano-6-(2H-1,2,3-triazol-2-yl)pyridin-3-yl)-1-(1-(3-cyanophenyl)ethyl)-5-(trifluoromethyl)-1H-pyrazole-4-carboxamide] | < 250 | 65 | – | –
15 | N#Cc1cc(NC(=O)c2cnn(Cc3cccc(F)c3)c2C(F)(F)F)cnc1-n1nccn1 [Compound 15, N-(5-cyano-6-(2H-1,2,3-triazol-2-yl)pyridin-3-y1)-1-(3-fluorobenzy1)-5-(trifluoromethyl)-1H-pyrazole-4-carboxamide] | < 250 | 99 | – | –
16 | CC(C)C(c1cccc(F)c1)n1ncc(C(=O)Nc2cnc(-n3nccn3)c(C#N)c2)c1C(F)(F)F (stereo not drawn) [Compound 48, N-(5-cyano-6-(2H-1,2,3-triazol-2-yl)pyridin-3-yl)-1-(1-(3-fluorophenyl)-2-methylpropyl)-5-(trifluoromethyl)-1H-pyrazole-4-carboxamide] | > 1000 | 23 | – | –
17 | N#Cc1cc(NC(=O)c2cnn(Cc3cccc(Cl)c3)c2C(F)(F)F)cnc1-n1nccn1 [Compound 8, 1-(3-chlorobenzyl)-N-(5-cyano-6-(2H-1,2,3-triazol-2-y1)pyridin-3-yl)-5-(trifluoromethyl)-1H-pyrazole-4-carboxamide] | < 250 | 87 | – | –
18 | COc1ncc(NC(=O)c2cnn(Cc3cccc(F)c3Cl)c2C(F)(F)F)cc1Cl [Compound 37, 1-(2-chloro-3-fluorobenzyl)-N-(5-chloro-6-methoxypyridin-3-y1)-5-(trifluoromethyl)-1H-pyrazole-4-carboxamide] | 251 to 1000 | 81 | – | –
19 | CC(c1cccc(F)c1)n1ncc(C(=O)Nc2cnc(-n3nccn3)c(Cl)c2)c1C(F)(F)F (racemic) [Compound 4, N-(5-chloro-6-(2H-1,2,3-triazol-2-yl)pyridin-3-yl)-1-(1-(3-fluorophenyl)ethyl)-5-(trifluoromethyl)-1H-pyrazole-4-carboxamide] | 251 to 1000 | 77 | – | –
20 | N#Cc1cc(NC(=O)c2cnn(Cc3ccc(Cl)cc3)c2C(F)(F)F)cnc1-n1nccn1 [Compound 9, 1-(4-chlorobenzyl)-N-(5-cyano-6-(2H-1,2,3-triazol-2-y1)pyridin-3-yl)-5-(trifluoromethyl)-1H-pyrazole-4-carboxamide] | 251 to 1000 | 55 | – | –
21 | Cc1c(F)cccc1Cn1ncc(C(=O)Nc2cnc(-n3nccn3)c(F)c2)c1C(F)(F)F [Compound 30, 1-(3-fluoro-2-methylbenzyl)-N-(5-fluoro-6-(2H-1,2,3-triazol-2-yl)pyridin-3-y1)-5-(trifluoromethyl)-1H-pyrazole-4-carboxamide] | 251 to 1000 | 97 | – | –
22 | O=C(Nc1ccnc(C(O)C(F)(F)F)c1)c1cnn(Cc2cccc(F)c2Cl)c1C(F)(F)F (stereo not drawn) [Compound 47, 1-(2-chloro-3-fluorobenzyl)-N-(2-(2,2,2-trifluoro-1-hydroxyethyl)pyridin-4-y1)-5-(trifluoromethyl)-1H-pyrazole-4-carboxamide] | – | – | 33 | –
